In patent US11845935B2, “Regulation of MIR-143 using nucleic acid molecules” (CHILDREN'S HOSPITAL MEDICAL CENTER, priority 2017, dated 2023):

Key:
M6PR [1] = molecular target: T1, M6PR (Homo sapiens, UniProt P11717); experiment: M6P competition of IDUA-myc uptake in hCMEC/D3 cells; type: cell-based; details: 1 h exposure to IDUA-myc conditioned medium (~20,000 U/mL), read-out: Median inhibitory concentration (IC50) of IDUA-myc uptake
T1 construct: endogenous in cells; host or cells: HUVEC (parental, or transduced with LV-143Spg / control LV)

M6PR [2] = molecular target: T1, M6PR; experiment: M6P competition of IDUA-myc uptake in HUVEC; type: cell-based

T1 sequence (P11717 41-2491): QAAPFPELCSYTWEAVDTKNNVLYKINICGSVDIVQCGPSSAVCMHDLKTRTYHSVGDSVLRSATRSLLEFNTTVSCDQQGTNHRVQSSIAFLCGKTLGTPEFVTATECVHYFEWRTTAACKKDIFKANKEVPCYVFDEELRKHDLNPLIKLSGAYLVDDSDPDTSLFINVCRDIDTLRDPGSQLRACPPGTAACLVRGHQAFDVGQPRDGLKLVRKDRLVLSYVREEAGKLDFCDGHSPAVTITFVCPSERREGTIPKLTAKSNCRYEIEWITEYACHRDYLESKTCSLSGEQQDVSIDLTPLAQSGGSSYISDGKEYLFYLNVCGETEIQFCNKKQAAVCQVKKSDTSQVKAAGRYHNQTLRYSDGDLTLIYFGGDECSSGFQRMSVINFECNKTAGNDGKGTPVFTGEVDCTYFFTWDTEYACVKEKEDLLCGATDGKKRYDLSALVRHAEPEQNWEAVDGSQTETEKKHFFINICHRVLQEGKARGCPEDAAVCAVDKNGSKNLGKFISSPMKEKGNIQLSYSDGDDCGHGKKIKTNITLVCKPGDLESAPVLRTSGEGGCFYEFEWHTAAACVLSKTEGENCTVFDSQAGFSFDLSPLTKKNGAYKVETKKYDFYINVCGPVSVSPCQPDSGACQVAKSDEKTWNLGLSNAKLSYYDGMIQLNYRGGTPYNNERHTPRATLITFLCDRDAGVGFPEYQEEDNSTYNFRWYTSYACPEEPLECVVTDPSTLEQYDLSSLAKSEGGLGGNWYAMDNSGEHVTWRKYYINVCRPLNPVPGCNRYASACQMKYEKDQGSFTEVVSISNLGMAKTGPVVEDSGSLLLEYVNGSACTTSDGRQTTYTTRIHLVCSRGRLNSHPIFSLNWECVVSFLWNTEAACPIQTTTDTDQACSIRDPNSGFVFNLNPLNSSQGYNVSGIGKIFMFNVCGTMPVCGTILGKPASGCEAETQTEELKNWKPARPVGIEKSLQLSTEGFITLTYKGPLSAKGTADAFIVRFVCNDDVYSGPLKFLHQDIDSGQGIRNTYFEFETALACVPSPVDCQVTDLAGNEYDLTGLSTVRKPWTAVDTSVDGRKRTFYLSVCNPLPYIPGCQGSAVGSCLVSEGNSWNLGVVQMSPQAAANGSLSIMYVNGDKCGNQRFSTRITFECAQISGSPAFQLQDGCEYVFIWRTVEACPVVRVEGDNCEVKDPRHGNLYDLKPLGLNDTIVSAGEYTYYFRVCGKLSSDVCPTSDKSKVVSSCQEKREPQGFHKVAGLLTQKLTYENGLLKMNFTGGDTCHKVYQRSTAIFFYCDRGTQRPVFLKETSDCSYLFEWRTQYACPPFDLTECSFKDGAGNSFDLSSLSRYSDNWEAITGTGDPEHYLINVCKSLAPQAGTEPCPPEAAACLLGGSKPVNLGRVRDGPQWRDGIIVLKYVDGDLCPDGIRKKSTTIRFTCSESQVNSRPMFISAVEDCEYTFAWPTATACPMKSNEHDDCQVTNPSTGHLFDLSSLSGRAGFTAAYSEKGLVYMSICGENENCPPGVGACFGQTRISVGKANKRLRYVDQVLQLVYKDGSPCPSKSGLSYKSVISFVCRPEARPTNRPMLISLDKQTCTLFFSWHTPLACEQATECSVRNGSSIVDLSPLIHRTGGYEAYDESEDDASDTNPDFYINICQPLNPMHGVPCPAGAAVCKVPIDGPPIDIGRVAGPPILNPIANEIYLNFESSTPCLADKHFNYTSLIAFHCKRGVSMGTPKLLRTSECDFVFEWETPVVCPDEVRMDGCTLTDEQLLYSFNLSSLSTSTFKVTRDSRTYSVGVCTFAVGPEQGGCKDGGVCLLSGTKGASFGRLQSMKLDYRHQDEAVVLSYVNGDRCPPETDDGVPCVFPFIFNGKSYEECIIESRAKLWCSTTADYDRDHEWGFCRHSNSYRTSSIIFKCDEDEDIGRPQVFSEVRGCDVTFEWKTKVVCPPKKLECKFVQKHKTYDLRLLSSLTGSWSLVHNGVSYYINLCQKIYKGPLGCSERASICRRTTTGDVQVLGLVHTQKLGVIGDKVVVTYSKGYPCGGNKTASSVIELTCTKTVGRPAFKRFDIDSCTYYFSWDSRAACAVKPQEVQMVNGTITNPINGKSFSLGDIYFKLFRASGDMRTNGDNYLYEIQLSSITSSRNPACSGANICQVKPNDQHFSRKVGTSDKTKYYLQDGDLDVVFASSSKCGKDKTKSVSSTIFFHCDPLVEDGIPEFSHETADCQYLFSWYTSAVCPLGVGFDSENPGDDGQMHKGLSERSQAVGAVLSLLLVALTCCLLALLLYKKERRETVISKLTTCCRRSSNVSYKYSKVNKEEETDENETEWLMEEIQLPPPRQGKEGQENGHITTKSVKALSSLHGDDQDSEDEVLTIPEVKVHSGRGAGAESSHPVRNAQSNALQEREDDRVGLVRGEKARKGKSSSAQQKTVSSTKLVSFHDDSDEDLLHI

O=C[C@@H](O)[C@@H](O)[C@H](O)[C@H](O)COP(=O)(O)O [M6P inhibitor, mannose 6-phosphate]
IC50 (M6PR [1]): 57.2 µM | IC50 (M6PR [2]; 1 h exposure to IDUA-myc conditioned medium (~20,000 U/mL), read-out: Median inhibitory concentration (IC50) of IDUA-myc uptake): 347 µM | M6PR-independent uptake (plateau) (M6PR [2]; residual uptake under M6P competition): ~18%
